Measurements as given in the METLIN SMRT retention time set (Domingo-Almenara et al. 2019).

test: gradient 5% acetonitrile 3 min, to 50% in 2 min, to 85% in 15 min, held 3 min, 100 µL/min; details: column: Zorbax Extend-C18 2.1 x 50 mm; eluents: water / acetonitrile, 0.1% formic acid
Procedure, shortened: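 The system's dead and dwell volumes were 40 μL and 900 μL, with a Zorbax Extend-C18 column (2.1 × 50 mm, 1.8 μm) run at 100 μL/min in water and acetonitrile containing 0.1% formic acid each. Pure standards were analyzed in mixtures of ~100 molecules by HPLC–quadrupole time-of-flight mass spectrometry in positive and negative ionization mode. Retention time was assigned from computationally picked, manually inspected adduct peaks.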

Row | SMILES | RP-LC retention time [s]
1 | O=C(Nc1ccc(N2CCN(C3CCCC3)C2=O)nc1)c1cc(F)cc(F)c1 | 917
2 | CCCCn1nc2ccc(S(=O)(=O)N3CCC(C)CC3)cn2c1=O | 970
3 | O=C1CC(NC(=O)C2(c3ccccc3)CCOCC2)CN1C1CC1 (stereo not given) | 621
4 | Cc1cc(OCC(=O)Nc2ccccc2Cl)nc(N2CCN(c3ccccc3)CC2)n1 | 993
5 | COc1cc2ncnc(Nc3cccc(Cl)c3)c2cc1OC | 750
6 | O=C(Nc1ccc2c(c1)OCO2)N1CCN(c2nc3ccccc3n(Cc3ccccc3)c2=O)CC1 | 1010
7 | O=C(Nc1ccc2nc3n(c(=O)c2c1)CCCC3)c1cc2ccccc2[nH]1 | 720
8 | CC(=O)Nc1ccc(Br)cc1C(=O)c1ccccc1 | 840
9 | CC(C)n1cnc(S(=O)(=O)N2CCC(C(=O)NCc3ccccc3Cl)CC2)c1 | 744
10 | COC(=O)c1cc(S(=O)(=O)N2CCCC2C(=O)Nc2cccc(C)n2)cn1C (stereo not given) | 773
11 | COc1ccc(N2CCN(C(=O)c3c(OC)cc(=O)n4c3CCCC4)CC2)cc1 | 660
12 | CCOc1ccc(-c2cn3ccn(-c4cc(Cl)ccc4C)c(=O)c3n2)cc1 | 934
13 | CC(C)c1ccc(Nc2c(-c3ccc(Cl)cc3)nc3cnccn23)cc1 | 1190
14 | CC1=C(c2cccc(Cl)c2)S(=O)(=O)N=C1N1CCC(NC(=O)C2CCC2)CC1 | 840
15 | O=C1CS(=O)C2(CCN(S(=O)(=O)Cc3ccccc3)CC2)N1CC1CC1 (stereo not given) | 713
16 | O=C(N[C@H]1C[C@@H]2C[C@H]1CN2C(=O)c1ccoc1)c1ccccc1 | 663
17 | Cc1cc(N2CCN(C)CC2)n2nc(-c3ccc(Cl)cc3)nc2n1 | 658
18 | CCOc1ccc(N2CC(C)Cn3c2nc2c3c(=O)n(C)c(=O)n2C)cc1 (stereo not given) | 831
19 | O=C(NCC1CCN(c2ncccn2)CC1)C(=O)Nc1ccon1 | 614
20 | CCC(=O)N1CCC(Cc2noc(C3CC3)n2)C1 (stereo not given) | 671
21 | CCOc1ccc(NC(=O)c2cc(C)n3nc(-c4ccco4)cc3n2)cc1 | 1130
22 | CCC(CC)NC(=O)CCC1CCN(c2cc(NC3CC3)ncn2)CC1 | 654

Row | SMILES | RP-LC retention time [s]
23 | COC(=O)c1ccc2c(=O)n(-c3cc(OC)cc(OC)c3)c(N3CCC(C)CC3)nc2c1 | 1210
24 | O=C(Nc1ccc(Br)cc1)N1CCC(N2CCN(Cc3ccccc3)C2=O)CC1 | 893
25 | O=C(NCCOc1cccc(C(F)(F)F)c1)c1ccc([N+](=O)[O-])cc1 | 913
26 | O=C1CCCc2cc(S(=O)(=O)N3CCN(c4ccccn4)CC3)ccc2N1 | 589
27 | CC(=O)NCc1ccc(-c2noc(-c3ccc(F)c(Cl)c3)n2)s1 | 955
28 | CCOc1ccccc1NC(=O)Cn1nc2c(Oc3cccc(F)c3)nccn2c1=O | 906
29 | Cc1cc(-c2nnc(-c3ccc(F)cc3)o2)c(C)n1CC(=O)NCc1ccc(F)cc1F | 939
30 | Cc1cc(Cl)ccc1S(=O)(=O)N1CCc2nn(CC(C)C)c(=O)n2CC1 | 919
31 | CC(C)N(CCCNC(=O)c1cc2sccc2n1C)Cc1ccccc1 | 682
32 | CC(=O)c1cccc(NC(=O)Cn2cncc(C)c2=O)c1 | 598
33 | CC(C)N1CCN(c2ncc(C(=O)NCc3ccccc3)c(N)n2)CC1 | 595
34 | O=C(Cn1c(=O)oc2ccccc21)NCc1n[nH]c(=O)c2ccccc12 | 595
35 | COc1ccc(-n2cc(-c3nc(-c4ccccn4)no3)c3ccccc3c2=O)cc1OC | 821
36 | O=C(O)CCC1CCN(C(=O)c2ccccc2Cl)CC1 | 677
37 | CCc1ccc(NC(=O)Cn2nc3cc(C)nc(Nc4ccc(F)c(C)c4)n3c2=O)cc1 | 1160
38 | O=C(NCCc1c[nH]c2ccccc12)C1CCCN1c1nnc(N2CCCC2=O)s1 (stereo not given) | 690
39 | O=C(CC1CCN(C(=O)Nc2cccc(C(F)(F)F)c2)CC1)N1CCCCC1 | 878
40 | COc1ccccc1CC(=O)N1CCCC1c1c(C)noc1C (stereo not given) | 753
41 | Cc1ccc(-c2nnc(Cc3nc(-c4cccnc4)no3)o2)cc1F | 812
42 | Cc1ncsc1C1N(C2CCN(C(=O)Cn3ccnc3)CC2)C(=O)C12CCCC2 (stereo not given) | 594
43 | CC(=O)NCc1csc(C2CCN(C(=O)COc3ccc(F)cc3)CC2)n1 | 662

Next, values leading:

Row | RP-LC retention time [s] | SMILES
44 | 684 | NS(=O)(=O)c1ccc(NC(=O)C2Cc3ccccc3C(=O)O2)cc1 (stereo not given)
45 | 891 | COc1ccc(-c2ccc(=O)n(Cc3nc(-c4ccccc4OC)no3)n2)cc1
46 | 1370 | CCOc1nc2ccccc2nc1N1CCCC(C(=O)Nc2cccc(C(F)(F)F)c2)C1 (stereo not given)
47 | 719 | O=S(=O)(Nc1cccn2c(C3CCC3)nnc12)c1cccc2nsnc12
48 | 1080 | CCCCC(=O)N1CCN(c2nc3ccccc3nc2C(F)(F)F)CC1
49 | 1150 | C[C@H](NC(=O)c1cc2ccccc2[nH]1)C(=O)NCCc1c[nH]c2ccccc12
50 | 729 | CCOC(=O)c1c(C)c(-c2ccccc2)n(CC(=O)N2CCN(c3ccccn3)CC2)c1C
51 | 590 | CC(C)N1CCN(C(=O)c2csc(C(=O)NC3CCCC3)n2)CC1
52 | 618 | CCOCCCNC(=O)N1CCN(c2nc3ccccc3n3cccc23)CC1
53 | 774 | CCn1cc(CCNC(=O)Nc2ccccc2Br)c2cccnc21
54 | 594 | NC(=O)CCC(NC(=O)Cc1ccccc1)C(=O)O (stereo not given)
55 | 705 | O=C(Cc1ccccc1F)NC1CCN(c2cc(-c3cccs3)[nH]n2)C1 (stereo not given)
56 | 543 | CCN(CC)c1nc(C(=O)N2CCN(C(C)C)CC2)nc2nc(C)cc(C)c12
57 | 1110 | COc1cccc(-c2nc(-c3ccc4oc(C)nc4c3)no2)c1
58 | 807 | Cc1noc(C)c1-c1ccc(S(=O)(=O)N2CCOCC2)cc1
59 | 781 | CCn1c(=O)c2cc(C(=O)NCc3cn[nH]c3C)nn2c2ccccc21
60 | 698 | COc1ncc(C(=O)Nc2ccccc2)c(C)n1
61 | 1130 | CCCn1cc(C(=O)NCc2cccc(C)c2)c(S(=O)(=O)N2CCC(C)CC2)n1
62 | 960 | CC(C)(C)C(=O)Nc1cnc(-c2ccc(F)cc2)nc1
63 | 606 | CCOC(=O)c1ccc(NC(=O)N2CC=C(c3cn(CC)c4ncccc34)CC2)cc1
64 | 707 | O=C1CC(c2nc(-c3ccccn3)no2)CN1c1ccc2c(c1)OCO2 (stereo not given)
65 | 620 | Cc1ccc2oc(N3CCN(C(=O)Cc4ccccc4)CC3)nc2n1
66 | 1100 | CC(NC(=O)c1cn(-c2cc(-c3nc(C(C)(C)C)no3)ccn2)cn1)c1ccccc1 (stereo not given)
67 | 643 | CCCNC(=O)COc1ccc(NC(=O)C2CC2)cn1

Row | RP-LC retention time [s] | SMILES
68 | 652 | Cc1c(CCC(=O)N2CCC3(O)CCCCC3C2)c(=O)oc2cc(O)ccc12 (stereo not given)
69 | 938 | Cc1ccc(-c2cn3c(CC(=O)NC4CCC(C)CC4)csc3n2)cc1C (stereo not given)
70 | 910 | CC(C)n1c(=O)sc2cc(S(=O)(=O)N3CCC(C(=O)NCCc4cccs4)CC3)ccc21
71 | 620 | Cn1nnnc1SCC(=O)NCCCC(=O)Nc1cccc2cccnc12
72 | 786 | O=C(Cn1nc2c(N3CCCCCC3)nccn2c1=O)Nc1ccc(Cl)cc1F
73 | 1300 | CCc1nnc(-c2ccc3ccn(CC(=O)NCc4ccccc4)c3c2)o1
74 | 743 | COc1cccc(-c2c(C(=O)O)nnn2-c2ccc3c(c2)OCO3)c1
75 | 907 | CCOC(=O)c1c(S(=O)(=O)N2CCC(C(=O)Nc3cccc(SC)c3)CC2)c(C)n(C)c1C
76 | 683 | COc1ccc(Cn2c(=O)n(C)c3ncncc32)cc1F
77 | 789 | O=S(=O)(NC1CCCCC1n1cc(-c2ccccc2)nn1)c1ccccc1 (stereo not given)
78 | 685 | CCCS(=O)(=O)N1CCC(N2C[C@H](Oc3ccccc3)[C@@H]2c2ccncc2)CC1
79 | 988 | Cc1nnc2c(=O)n(CC(=O)NC(C)c3ccccc3)c3cccnc3n12 (stereo not given)
80 | 1190 | Cc1cc(O)c(C(C)C)cc1NC(=O)Nc1cccc2ccccc12
81 | 674 | Cn1cc(S(=O)(=O)N2CCC(C(=O)NCc3cccnc3)CC2)cc1C(=O)N1CCCC1
82 | 1080 | CCCCOC(=O)C1=CN(Cc2ccccc2)S(=O)(=O)N=C1C
83 | 1220 | CCn1cc(-c2nc(C(=O)Nc3ccc(F)cc3F)cs2)c2cccnc21
84 | 894 | O=C(CCC1CCN(S(=O)(=O)c2ccccc2)CC1)N1CCCCC1
85 | 605 | Cc1cccc2c(C(=O)N3CCCC3)cc(N(C)C)nc12
86 | 598 | CN1C(=O)NC(c2ccccc2C(F)(F)F)C2=C1CN(CCC(=O)N1CCCC1)C2=O (stereo not given)
87 | 1210 | CCc1ccc(-c2noc(Cn3c(=O)n(Cc4ccccc4)c(=O)c4sccc43)n2)cc1
88 | 1190 | CNC(=O)c1cc(Oc2ccc(NC(=O)Nc3ccc(Cl)c(C(F)(F)F)c3)cc2)ccn1
89 | 1030 | CCN1C(=O)COc2ccc(-c3nc(NC(=O)c4ccccc4)sc3C)cc21
90 | 691 | Cc1c(N2CCC(C(=O)NCC3CCCO3)CC2)c(=O)n(C)c(=O)n1-c1ccccc1 (stereo not given)
